Test results from patent publication US6117976A, “Manufacture and use of polypeptides tagged using binding molecules” (Medical Research Council, priority 1993, dated 2000).
“Also recorded” adds a separate entry of the source. Where two headings read alike, the source gives them in different places. No end group written: not given here.

Assays:
calmodulin [1] = molecular target: T1, calmodulin (Homo sapiens, UniProt P0DP23); assay: Native gel autoradiography of 2-[125I]-melatonin with calmodulin; format: binding; conditions: 1 μCi 2-[125I]-melatonin, 15% polyacrylamide gel, 0.5 mM CaCl2, no SDS
Protocol: In order to assess this, 1 μl calmodulin (1 mg/ml) was incubated with 1 μCi 2-[^125 I]-melatonin in 9 μl TBSC and run on a 15% polyacrylamide gel. The gel was as the running gel of Laemmli (Nature 1970 220 680-685), but with 0.5 mM CaCl2 and no SDS in both gel and buffer.

calmodulin [2] = molecular target: T1, calmodulin; assay: Native gel electrophoresis of fluoresceinated TAG peptides with calmodulin; format: binding; conditions: excess calmodulin, TBS 1 mM CaCl2, 15% native gel
Source text: FIGS. 9A and 9B: Fluorescent and Coomassie blue detection of fluorescent peptide/calmodulin complexes. Native gel electrophoresis of calmodulin and fluoresceinated TAG1 (Track 1), calmodulin and fluoresceinated TAG2 (Track 2), calmodulin and fluoresceinated TAG3 (Track 3), and calmodulin and fluoresceinated TAG4 (Track 4). The gel was first imaged on a UV transilluminator and photographed (FIG. 9A) and then stained with Coomassie blue and photographed (FIG. 9B).
For peptide fluoresceination, 1 mg of each peptide was dissolved in 1 ml of 100 mM NaHCO3, pH 8.9. One volume of peptide was mixed with one volume of water and 2 volumes of 2 mM iodoacetamidofluorescein (Molecular Probes Inc.) in dimethylformamide. The reaction was allowed to proceed for 15 minutes then quenched by adding dithiothreitol to 10 mM final concentration. The fluoresceinated peptides were separated from unreacted fluorescein using a Millipore MEM-SEP cartridge column (TBS=loading and wash buffer; TBS+0.5 M NaCl=elution buffer).
A 20 μl reaction was set up containing ca. 0.4 μg of fluoresceinated peptide and 18 μg of calmodulin (Sigma) in TBS containing 1 mM CaCl2 (TBS is 50 mM Tris-HCl, pH 7.4, 100 mM NaCl in water).

calmodulin [3] = molecular target: T1, calmodulin; conditions: 600 nM calmodulin, 50 nM fluorescein-labeled TAG3, 7 μM unlabelled peptide, on ice, up to 4 hrs
Protocol: 600 nM calmodulin was pre-mixed in TBSC and 10% sucrose with 50 nM fluorescein-labeled TAG3 peptide. Aliquots were incubated on ice with a large excess (7 μM) unlabeled peptide for 0, 0.5, 1, 2, and 4 hrs, and analysed on a native 15% polyacrylamide gel (as in Laemmli, 1970 supra except with CaCl2 to 1 MM) in a Hoefer Mighty Small apparatus, and imaged with a cooled CCD-camera based fluorescent gel imaging system developed in collaboration with Confocal Technologies (Liverpool, UK) and Digital Pixel (Brighton, UK).
600 nM calmodulin was pre-mixed in TBSC and 10% sucrose with 50 nM fluorescein-labeled TAG3 peptide. Aliquots were incubated on ice with a large excess (7 μM) unlabelled peptide for 0, 0.5, 1, 2, and 4 hrs, and analysed on a native 15% polyacrylamide gel (as in Carr & Scott, 1992 supra) except with CaCl2 to 1 mM) in a Hoefer Mighty Small apparatus, and imaged with a cooled CCD-camera based fluorescent gel imaging system developed in collaboration with Confocal Technologies (Liverpool, UK) and Digital Pixel (Brighton, UK).

calmodulin [4] = molecular target: T1, calmodulin; conditions: cited from earlier work
scFv(HyHEL-10)-CAL [5] = format: binding
Protocol: FIG. 8A: Binding of scFv-CAL and MBP-TAG1 detected by surface plasmon resonance (Pharmacia Biacore). 2500 resonance units (RUs) of turkey egg lysozyme (TEL) (Sigma) were immobilized on a microsensor chip of a BIAcore machine (Pharmacia). A solution of […] (5 μg/ml) in TBSC was injected onto the chip (flow rate 5 μl/min), followed by injections of MBP-TAG1 (5 μg/ml), then 20 mM EGTA (to dissociate the complex) and then MBP (New England Biolabs 5 μg/ml).
Thus HEL was immobilised on the microsensor chip, and the chip saturated with scFv(HyHEL-10)-CAL.
(§1) 2500 resonance units (RUs) of turkey egg lysozyme (TEL) (Sigma) were immobilised on a microsensor chip of a BIAcore machine (Pharmacia). A solution of […] (5 μg/ml) in TBSC was injected onto the chip (flow rate 5 μl/min), followed by injections of MBP-TAG1 (5 μg/ml), then 20 mM EGTA (to dissociate the complex) and then MBP (New England Biolabs 5 μg/ml). […] Conditions were as in Example 7 and FIG. 5, except the gel was stained with Coomassie. Lanes: 1, MBP-TAG1 (0.3 mg/ml); 2, scFv (HyHEL10)-CAL (0.08 mg/ml); 3, scFv (HyHEL-10) (0.08 mg/ml)+MBP-TAG1 (0.3 mg/ml).

scFv(HyHEL-10)-CAL [6] = assay: Native Phast gel analysis of scFv(HyHEL-10)-CAL and MBP-TAG1 interaction; format: binding
Protocol: FIG. 8B: Homogeneous 20 Native Phast Gel (Pharmacia) for the analysis of scFv(HyHEL-10)-CAL and MBP-TAG1 interaction. Conditions as in FIG. 5, except the gel was stained with Coomassie. Lanes: 1, MBP-TAG1 (0.3 mg/ml); 2, scFv (HyHEL-10)-CAL (0.08 mg/ml); 3, scFv (HyHEL-10) (0.08 mg/ml)+MBP-TAG1 (0.3 mg/ml).
as §1

[7] = system: fluoresceinated TAG-3 peptide; assay: Band shift assay of alternative fusion partners with fluoresceinated TAG-3 peptide; format: binding; conditions: 10 μM fluoresceinated TAG-3, TBSC, High-Density Phast Gel, native
Protocol: 1 μl of purified scFv (D1.3)-CAL (Example 5), scFv(D1.3)-CAL(N-domain), scFv(D1.3)-CAL(C-domain), calmodulin or troponin C were incubated with 10 μM fluoresceinated TAG-3 peptide and 8 μl TBSC. The samples were run on a High-Density Phast Gel (Pharmacia) using native buffer strips, and gel imaged.

[8] = in vivo; cited from earlier work
[9] = Table 1, affinities of calmodulin-binding peptides

With COc1ccc2[nH]c([125I])c(CCNC(C)=O)c2c1 [2-[^125 I]-melatonin] the “detection of calmodulin-melatonin complex on gel (radioactive band)” value (calmodulin [1]) was “no radioactive band was detected”.
In the case of COc1ccc2[nH]cc(CCNC(C)=O)c2c1 [Melatonin, melatonin], the “detection of calmodulin-melatonin complex on gel (radioactive band)” value (calmodulin [1]) is reported as “no complex is detected on band shift assays”.
With C-EIKRAAA-INLKALAALAKKIL-IK-OH [TAG 4] the “peptide-calmodulin complex formation (comigration of fluorescent and coomassie bands)” value (shortened to “peptide-calmodulin complex formation”) (calmodulin [2]) was “stable complex with calmodulin”.
In the case of “C-EIKRAAA-INLKALAALAKKIL-IKRKRQQ-NH2 [TAG 3]”, the “displacement of fluorescent peptide from calmodulin by unlabelled peptide” value (calmodulin [3]) is reported as “not significantly displaced from the calmodulin even after four hours competition” and the “peptide-calmodulin complex formation” value (calmodulin [2]) is reported as “the upper of these that has bound peptide”.
In the case of “C-EIKRAAA-INLKALAALAKKIL-NH2 (CEIKRAAAINLKALAALAKKIL-NH2) [TAG 1]”, the “peptide-calmodulin complex formation” value (calmodulin [2]) is reported as “stable complex with calmodulin”.
In the case of C-EIKRAAA-INLKALAALAKKIL-OH [TAG 2], the “peptide-calmodulin complex formation” value (calmodulin [2]) is reported as “stable complex with calmodulin”.
In the case of “IKPAKRMKFKTVCYLLVQLMHCRKMFKA-NH2 [AC-28]”, the Kd (calmodulin [4]; [9]) is listed as 2 nM.
For INLKALAALAKKIL-NH2 [Mastoparan], the Kd (calmodulin [4]; [9]) is listed as 0.3 nM, the Ka (calmodulin [4]; association constant for calmodulin) is listed as 3.3e+09 M⁻¹ and the Kd (calmodulin [4]; binding to calmodulin, Malencik and Anderson, 1983) is listed as 0.3 nM.
In the case of “KRRAIGFKKLAEAVKFSAKLMGQAMAKRVK-NH2 [NO-30]”, the Kd (calmodulin [4]; [9]) is given as 2 nM.
With “MBP-TAG1: maltose binding protein with the TAG1 peptide appended at the C-terminus (CEIKRAAAINLKALAALAKKIL)” the “binding to chip saturated with scFv(HyHEL-10)-CAL” value (scFv(HyHEL-10)-CAL [5]; 5 μg/ml in TBSC) was “shown to bind to the chip”, the “dissociation of bound protein by EGTA” value (scFv(HyHEL-10)-CAL [5]; 20 mM EGTA) was “could be dissociated by addition of EGTA” and the “stable complex with scFv calmodulin fusion by gel electrophoresis” value (scFv(HyHEL-10)-CAL [6]) was “form a stable complex”.
In the case of “QILWFRGLNRIQTQIRVVNAFRSS-NH2 [Ca++ pump]”, the Kd (calmodulin [4]; [9]) is listed as 10 nM.
For calmodulin, the “complex formation with TAG-3 (fluorescent band)” value [7] is listed as “observed”, the excretion [8] is listed as “rapidly excreted in the urine” and the immunogenicity [8] is listed as “poorly immunogenic”. For the same compound, the organ accumulation [8] was “does not accumulate selectively in any organ” and the toxicity [8] was “not toxic”.
For maltose binding protein [MBP], the “binding to chip saturated with scFv(HyHEL-10)-CAL” value (scFv(HyHEL-10)-CAL [5]) was “not”.
With troponin C the “complex formation with TAG-3 (fluorescent band)” value [7] was “observed; also recorded: binds well”.
